# Reference: the METLIN SMRT retention time set (Domingo-Almenara et al. 2019)
# Assay: gradient 5% acetonitrile 3 min, to 50% in 2 min, to 85% in 15 min, held 3 min, 100 µL/min
# Details: column: Zorbax Extend-C18 2.1 x 50 mm; eluents: water / acetonitrile, 0.1% formic acid
# Procedure, shortened: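 Pure standards were analyzed in mixtures of ~100 molecules using HPLC coupled to a quadrupole time-of-flight mass spectrometer, in both positive and negative ionization mode. Separation used a Zorbax Extend-C18 column (2.1 × 50 mm, 1.8 μm) at 100 μL/min, with water and acetonitrile each containing 0.1% formic acid. Dead and dwell volumes were 40 μL and 900 μL, and data were collected over 3 months. Retention time was read from computationally picked adduct peaks, each inspected manually.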
row,RP-LC retention time,Compound
1,1060 s,CN(Cc1ccccc1)C(=O)C1(c2ccc(NC(=O)C3CC3)cc2)CCCCC1
2,664 s,Cc1ccc2oc(=O)c3cc(C(=O)N4CCN(c5ccccn5)CC4)sc3c2c1
3,1180 s,COc1ccc(CNS(=O)(=O)c2cc(-c3nc(C(C)C)cs3)sc2C)cc1
4,750 s,CN(CC1CCOCC1)C(=O)Nc1cccc(Cl)c1
5,623 s,CCN(CCN(C)C)c1ccc(C(=O)O)cc1NS(=O)(=O)c1ccc(C)cc1
6,758 s,COc1ccccc1NC(=O)C1CCN(S(=O)(=O)c2cc(C(=O)N3CCCC3)n(C)c2)CC1
7,942 s,Cn1nc(-c2nc(-c3cccc(Cl)c3)no2)ccc1=O
8,849 s,CCCc1noc(-c2ccnc(-n3cnc(C(=O)NC(C)C)c3)c2)n1
9,877 s,CS(=O)(=O)Nc1ccc(-c2noc(-c3cncc(Br)c3)n2)cc1
10,641 s,Cc1nc(C)c(C(=O)N2CCCC(c3nn(C)c(=O)n3-c3ccccc3)C2)s1 (stereo not given)
11,946 s,O=c1c(S(=O)(=O)N2CCCCCC2)cccn1Cc1cccc(F)c1
12,737 s,COc1ccc(OC)c(CNC(=O)C2CCCN(c3nnc4ccc(Cl)cn34)C2)c1 (stereo not given)
13,653 s,CC(C)OCCCN(CC(=O)N1CCNCC1)C(=O)c1ccc(C(F)(F)F)cc1
14,652 s,CCCn1c(C)cnc1C1CN(S(=O)(=O)Cc2ccccc2)C1
15,607 s,CCc1nn(CC(=O)N2CCN(c3ccccn3)CC2)c(=O)c2cc3ccccc3n12
16,664 s,COc1ccc(NC(=O)N2CC(N(C3CCOCC3)S(C)(=O)=O)C2)c(C)c1
17,990 s,Cc1noc(-c2nc(-c3cccc(F)c3)no2)n1
18,1090 s,CC1(C)CC(=O)c2cn(-c3ccccc3)c(=O)c(C(=O)Nc3ccc(F)cc3F)c2C1
19,862 s,CCOC(=O)c1cc2n(n1)CC(C)(C(=O)NC1CCCC1)N(c1cccc(F)c1)C2=O (stereo not given)
20,924 s,Cc1ccc(C)c(NC(=O)N2CCc3nc(-c4ccccc4)ncc3C2)c1
21,664 s,CC1CN2C=NC(N3CCN(C(=O)Nc4ccc(F)cc4F)CC3)=CC2=N1 (stereo not given)

row,RP-LC retention time,Compound
1,1070 s,Cc1ccc(C)c(N2CCN(C(=O)c3ccc4c(c3)CCN4C(=O)C3CC3)CC2)c1
2,1200 s,Cc1ccc(-n2ncc3c(=O)n(Cc4nc(-c5ccc(OC(F)(F)F)cc5)no4)cnc32)cc1
3,573 s,CN(C)CCNC(=O)c1ccnc(-c2ccsc2)c1
4,658 s,COCC(C)NC(=O)C(=O)NCc1cccs1 (stereo not given)
5,634 s,CCNC(=O)c1n[nH]c2c1CN(C(=O)c1ccc3c(c1)OCO3)CC2
6,800 s,CN(Cc1ccccc1)C(=O)C(=O)c1c[nH]c2ccccc12
7,586 s,O=C(NCCN1CCN(C(=O)c2cccs2)CC1)Nc1ccc(C(F)(F)F)cc1
8,719 s,COc1cc(OC)c(NC(=O)CN2C(=O)CN(C)C(=O)c3ccccc32)cc1Cl
9,852 s,COc1ccccc1CNC(=O)c1nnc(-c2ccc(S(=O)(=O)N(C)C)cc2)o1
10,1150 s,O=C(Nc1nc(-c2ccccc2)cs1)c1ccc(S(=O)(=O)N2CCCCC2)cc1
11,787 s,CN[C@@H](C)C(=O)N[C@H](C(=O)N1CCC[C@H]1c1nc(C(=O)c2ccc(F)cc2)cs1)C1CCCCC1
12,792 s,Cc1ccc(NC(=O)N2CCC(OC3CCN(S(C)(=O)=O)CC3)CC2)cc1F
13,1150 s,Cc1ccc(-c2noc(C3CCCN3C(=O)C(NS(=O)(=O)c3ccc(C)cc3)C(C)C)n2)cc1 (stereo not given)
14,687 s,O=C(NCc1ccccn1)C1CCCN(c2nccnc2Sc2ccccc2)C1 (stereo not given)
15,732 s,Cc1ccccc1CNC(=O)C1CCCN1S(=O)(=O)c1cc2c(cc1C)NC(=O)CO2 (stereo not given)
16,625 s,Cc1cc(Nc2cc(N3CCN(C)CC3)nc(/C=C/c3ccccc3)n2)n[nH]1
17,687 s,COc1ccc(NC(=O)C2CC(=O)N(c3ccc4c(c3)CCN4C(C)=O)C2)cc1F (stereo not given)
18,915 s,O=C(Cc1ccsc1)NCCC1CCN(C(=O)Nc2cc(F)ccc2F)CC1
19,764 s,CCc1cc(=O)n(CC(=O)N(C)c2cccc(C)c2)c(N2CCOCC2)n1
20,667 s,COCCN1CCC2(CC1)CN(Cc1ccc(C(C)C)cc1)Cc1ccccc1O2
21,880 s,O=C(NCc1ccccc1)c1nc(Cn2c(=O)oc3ccccc32)no1

row,RP-LC retention time,Compound
1,1130 s,CCN1C(=O)COc2ccc(-c3nc(NC(=O)c4ccc(Cl)cc4)sc3C)cc21
2,756 s,O=C(NCc1ccco1)c1cccc(Nc2c(-c3ccccc3)nc3cnccn23)c1
3,567 s,COc1ccc(N2CCN(C(=O)C3CCN(CCc4c[nH]c5ncccc45)CC3)CC2)cc1
4,745 s,COC[C@@H]1CN(S(=O)(=O)c2ccccc2F)C[C@H]1c1ccncc1
5,1090 s,Fc1cccc(-c2nc(-c3cn(-c4cccc(F)c4)nn3)no2)c1
6,1300 s,Cc1cc(C)c(S(=O)(=O)N2CCCC2c2nc(-c3ccccc3C)no2)cc1C (stereo not given)
7,852 s,Cc1ccc(-n2cc(C(=O)N3CCSCC3)nn2)cc1C
8,814 s,CN(C)S(=O)(=O)c1ccc(-c2nnc(C(=O)NCc3ccc4c(c3)OCO4)o2)cc1
9,622 s,CCCCN(C)C(=O)c1cc(NC(=O)C(C)(C)C)cnc1N1CCNCC1
10,682 s,CCN1C(=O)COc2ccc(-c3nc(NC(=O)c4cccc(C)c4)sc3C)cc21
11,750 s,CCC(=O)N1CCc2cc(N3CC(C(=O)NCc4ccccc4C)CC3=O)ccc21 (stereo not given)
12,927 s,O=C(NCc1csc(-c2cccs2)n1)C1CCN(S(=O)(=O)c2cccc(Cl)c2)CC1
13,726 s,O=C(Cn1c(-c2cccs2)cc2cc(Cl)ccc21)NCCCN1CCOCC1
14,786 s,CSc1ccc(CNC(=O)C2CCCN(c3ncnc4c3oc3ccccc34)C2)cc1 (stereo not given)
15,672 s,CCC(C)NC(=O)CCNc1c(-c2ccc(C)cc2)nc2cnccn12 (stereo not given)
16,746 s,CCn1ccc(C(=O)NC2CCN(C3=NS(=O)(=O)C(c4ccccc4)=C3C)CC2)n1
17,891 s,COc1ccc2cc3c(=O)n(-c4ccc(C(=O)O)cc4)nc-3oc2c1
18,689 s,CN1CC[C@H](c2c(O)cc(O)c3c(=O)cc(-c4ccccc4Cl)oc23)[C@H](O)C1
19,629 s,COCC(C)(O)CNC(=O)C(=O)Nc1ccccc1C#N (stereo not given)
20,1010 s,CCCCN(C)C(=O)c1sc(-c2cn(C(C)C)c3ncccc23)nc1C
21,624 s,Cn1cnc2ccc(-c3noc(CNC(=O)c4ccccc4)n3)cc21

row,Compound,RP-LC retention time
1,O=C(Cc1c[nH]c2ccccc12)N1CCN2CCS(=O)(=O)N(C3CC3)C(=O)C2C1 (stereo not given),743 s
2,CCC(=O)Nc1ccc(-n2cnc(C(=O)N3CCC4(CC3)OCCO4)c2)nc1,616 s
